Measurements: ChEMBL document CHEMBL5614367, “Hydroxamic acid hybrids: Histone deacetylase inhibitors with anticancer therapeutic potency” (Eur J Med Chem, 2023)
Values belong to the compound of their own block, whether it stands above or below them.

Columns and labels:
[1] = test system: MDA-MB-231; assay: Antiproliferative activity against human MDA-MB-231 cells
[2] = test system: PC-3; assay: Antiproliferative activity against human PC-3 cells; type: functional, cell-based
[3] = test system: SW-620; assay: Antiproliferative activity against human SW620 cells; type: functional, cell-based
[4] = target: T1, Protein deacetylase HDAC6 (Homo sapiens, UniProt Q9UBN7); assay: Inhibition of HDAC6 (unknown origin)
T1 sequence (Q9UBN7 whole entry): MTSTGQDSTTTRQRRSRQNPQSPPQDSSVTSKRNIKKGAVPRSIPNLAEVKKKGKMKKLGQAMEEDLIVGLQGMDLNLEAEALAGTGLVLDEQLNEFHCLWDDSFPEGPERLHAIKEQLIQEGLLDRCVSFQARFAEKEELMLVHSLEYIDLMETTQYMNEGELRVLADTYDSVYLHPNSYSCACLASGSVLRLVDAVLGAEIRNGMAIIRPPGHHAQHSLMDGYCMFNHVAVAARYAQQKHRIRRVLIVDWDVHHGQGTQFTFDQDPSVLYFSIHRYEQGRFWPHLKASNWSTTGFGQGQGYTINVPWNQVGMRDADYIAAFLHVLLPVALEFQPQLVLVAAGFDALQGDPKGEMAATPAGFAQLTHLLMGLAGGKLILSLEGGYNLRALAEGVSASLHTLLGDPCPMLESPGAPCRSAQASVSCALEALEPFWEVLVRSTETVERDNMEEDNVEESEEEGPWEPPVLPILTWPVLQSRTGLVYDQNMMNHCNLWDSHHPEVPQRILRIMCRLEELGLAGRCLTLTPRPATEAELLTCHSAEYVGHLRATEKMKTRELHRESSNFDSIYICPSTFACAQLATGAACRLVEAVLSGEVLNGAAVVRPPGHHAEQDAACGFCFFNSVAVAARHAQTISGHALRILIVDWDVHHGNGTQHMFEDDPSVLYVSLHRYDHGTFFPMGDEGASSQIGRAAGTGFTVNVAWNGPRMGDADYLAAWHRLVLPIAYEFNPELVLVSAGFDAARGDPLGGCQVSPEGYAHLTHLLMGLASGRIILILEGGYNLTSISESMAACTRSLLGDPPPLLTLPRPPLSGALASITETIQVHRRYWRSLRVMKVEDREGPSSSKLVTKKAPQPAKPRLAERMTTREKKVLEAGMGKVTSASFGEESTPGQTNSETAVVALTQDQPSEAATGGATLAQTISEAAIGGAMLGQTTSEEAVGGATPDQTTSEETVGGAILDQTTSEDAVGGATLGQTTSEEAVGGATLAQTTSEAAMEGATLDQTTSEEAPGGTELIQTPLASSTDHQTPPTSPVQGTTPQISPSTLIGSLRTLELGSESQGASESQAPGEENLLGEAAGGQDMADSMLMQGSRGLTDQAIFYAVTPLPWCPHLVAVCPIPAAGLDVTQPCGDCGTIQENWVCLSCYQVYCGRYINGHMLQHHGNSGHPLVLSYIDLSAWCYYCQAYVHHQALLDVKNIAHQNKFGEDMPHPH

[5] = test system: HCT-116; assay: cells; settings: Homo sapiens
[6] = target: Serine/threonine-protein kinase B-raf (Homo sapiens, UniProt P15056, V600E); assay: Inhibition of BRAF V600E mutant (unknown origin)
Serine/threonine-protein kinase B-raf (Homo sapiens, UniProt P15056, V600E), sequence (P15056 2-766 V600E limits assumed): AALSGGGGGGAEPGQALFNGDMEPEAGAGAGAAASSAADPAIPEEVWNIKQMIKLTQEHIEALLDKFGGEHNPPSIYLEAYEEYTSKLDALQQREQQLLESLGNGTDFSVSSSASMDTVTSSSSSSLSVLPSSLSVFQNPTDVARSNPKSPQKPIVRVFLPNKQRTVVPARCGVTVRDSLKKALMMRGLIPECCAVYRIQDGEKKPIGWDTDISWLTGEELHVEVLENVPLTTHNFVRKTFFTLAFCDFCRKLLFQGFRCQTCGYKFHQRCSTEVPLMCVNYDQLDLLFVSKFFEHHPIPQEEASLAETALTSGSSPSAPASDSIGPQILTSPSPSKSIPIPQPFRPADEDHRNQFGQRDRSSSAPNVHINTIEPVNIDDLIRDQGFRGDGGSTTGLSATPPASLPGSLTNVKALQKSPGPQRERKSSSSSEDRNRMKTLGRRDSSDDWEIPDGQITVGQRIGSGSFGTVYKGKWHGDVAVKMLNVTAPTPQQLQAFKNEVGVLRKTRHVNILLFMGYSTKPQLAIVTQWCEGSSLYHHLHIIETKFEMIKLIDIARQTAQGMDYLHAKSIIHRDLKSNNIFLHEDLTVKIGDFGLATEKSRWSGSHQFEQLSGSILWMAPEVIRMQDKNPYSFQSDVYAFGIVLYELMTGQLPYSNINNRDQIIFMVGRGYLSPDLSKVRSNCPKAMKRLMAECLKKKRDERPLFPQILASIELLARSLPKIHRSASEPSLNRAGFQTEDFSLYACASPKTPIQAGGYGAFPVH

[7] = target: Serine/threonine-protein kinase B-raf (Homo sapiens, UniProt P15056); assay: Inhibition of wild type BRAF (unknown origin)
Serine/threonine-protein kinase B-raf (Homo sapiens, UniProt P15056), sequence (P15056 whole entry): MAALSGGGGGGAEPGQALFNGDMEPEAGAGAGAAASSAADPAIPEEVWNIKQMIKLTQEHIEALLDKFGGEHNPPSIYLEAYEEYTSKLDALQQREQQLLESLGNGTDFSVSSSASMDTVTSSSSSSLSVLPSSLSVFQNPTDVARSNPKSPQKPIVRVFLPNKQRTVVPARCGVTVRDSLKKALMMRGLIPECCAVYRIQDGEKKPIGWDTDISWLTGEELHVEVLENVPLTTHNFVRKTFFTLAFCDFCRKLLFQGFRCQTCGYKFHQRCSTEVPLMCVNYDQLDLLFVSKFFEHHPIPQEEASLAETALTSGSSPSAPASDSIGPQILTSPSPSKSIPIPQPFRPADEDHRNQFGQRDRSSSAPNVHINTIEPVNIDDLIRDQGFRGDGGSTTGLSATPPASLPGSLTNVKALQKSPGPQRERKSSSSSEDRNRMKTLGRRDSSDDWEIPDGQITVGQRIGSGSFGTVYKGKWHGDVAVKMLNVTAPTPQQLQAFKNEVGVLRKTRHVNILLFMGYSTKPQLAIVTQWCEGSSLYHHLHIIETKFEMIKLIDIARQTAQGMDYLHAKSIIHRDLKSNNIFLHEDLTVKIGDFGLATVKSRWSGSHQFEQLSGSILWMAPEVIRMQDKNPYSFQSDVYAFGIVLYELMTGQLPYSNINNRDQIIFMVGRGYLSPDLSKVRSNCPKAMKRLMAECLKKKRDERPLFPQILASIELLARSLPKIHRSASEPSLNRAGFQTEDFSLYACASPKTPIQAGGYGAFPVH

[8] = test system: NCI-H23; assay: Antiproliferative activity against human NCI-H23 cells incubated for 48 hrs by colorimetric method; type: functional, cell-based; settings: NCI-H23, 48 h
[9] = test system: PC-3; assay: Antiproliferative activity against human PC-3 cells incubated for 48 hrs by colorimetric method; type: functional, cell-based; settings: PC-3, 48 h
[10] = test system: 143B; assay: Antiproliferative activity against human 143B cells; type: functional
[11] = test system: HOS; assay: Antiproliferative activity against human HOS cells; type: functional
[12] = test system: SW-620; assay: Antiproliferative activity against human SW620 cells incubated for 48 hrs by colorimetric method; type: functional, cell-based; settings: SW-620, 48 h
[13] = test system: SAOS-2; assay: Antiproliferative activity against human SAOS-2 cells; type: functional
[14] = test system: A549; assay: Antiproliferative activity against human A549 cells assessed as inhibition of cell growth incubated for 48 hrs by SRB assay; type: functional, cell-based; settings: A549, 48 h
[15] = target: T1, Protein deacetylase HDAC6; assay: Inhibition of human recombinant HDAC6 using Fluor-de-Lys deacetylase as substrate by Spectrofluorimetry
[16] = test system: HCT-116; assay: cells; type: functional, cell-based; settings: Homo sapiens, HCT-116, 48 h
[17] = Cytotoxicity against rat H9c2 cells assessed as inhibition of cell growth incubated for 72 hrs by MTT assay; type: toxicity, cell-based
[18] = target: Histone deacetylase 2 (Homo sapiens, UniProt Q92769); assay: Inhibition of HDAC2 (unknown origin) incubated for 30 mins by fluorescence based microplate reader analysis
Histone deacetylase 2, sequence (Q92769 whole entry): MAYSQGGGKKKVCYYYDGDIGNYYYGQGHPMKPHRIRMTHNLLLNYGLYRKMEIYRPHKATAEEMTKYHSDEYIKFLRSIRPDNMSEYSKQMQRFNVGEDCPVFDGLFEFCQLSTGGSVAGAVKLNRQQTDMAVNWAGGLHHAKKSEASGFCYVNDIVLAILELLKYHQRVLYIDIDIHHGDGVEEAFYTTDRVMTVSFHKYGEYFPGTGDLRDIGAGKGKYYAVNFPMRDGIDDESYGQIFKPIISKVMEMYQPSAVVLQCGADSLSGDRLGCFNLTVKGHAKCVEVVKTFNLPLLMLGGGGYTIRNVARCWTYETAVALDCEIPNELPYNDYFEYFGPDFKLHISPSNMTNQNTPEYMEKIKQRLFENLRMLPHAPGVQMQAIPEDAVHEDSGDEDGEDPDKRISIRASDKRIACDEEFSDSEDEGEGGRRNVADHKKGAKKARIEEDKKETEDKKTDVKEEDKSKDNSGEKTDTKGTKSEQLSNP

[19] = test system: TPC1; assay: cells; type: functional, cell-based; settings: Homo sapiens, TPC1, 72 h
[20] = target: Histone deacetylase 3 (Homo sapiens, UniProt O15379); assay: Inhibition of HDAC3 (unknown origin) incubated for 30 mins by fluorescence based microplate reader analysis
Histone deacetylase 3, sequence (O15379 whole entry): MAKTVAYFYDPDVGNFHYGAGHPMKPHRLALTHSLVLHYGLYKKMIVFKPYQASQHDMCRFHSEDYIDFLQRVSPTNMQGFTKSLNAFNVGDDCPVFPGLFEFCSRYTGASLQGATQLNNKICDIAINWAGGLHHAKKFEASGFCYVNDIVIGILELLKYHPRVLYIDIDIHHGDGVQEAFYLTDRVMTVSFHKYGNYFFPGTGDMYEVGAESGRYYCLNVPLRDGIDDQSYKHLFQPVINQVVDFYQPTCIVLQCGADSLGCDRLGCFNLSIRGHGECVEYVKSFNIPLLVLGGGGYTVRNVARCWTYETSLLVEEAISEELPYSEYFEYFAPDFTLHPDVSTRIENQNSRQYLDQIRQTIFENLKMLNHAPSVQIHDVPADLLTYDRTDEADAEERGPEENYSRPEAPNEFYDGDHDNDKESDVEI

[21] = test system: HL-60; assay: cells; type: functional, cell-based; settings: Homo sapiens, HL-60, 72 h
[22] = test system: HepG2; assay: cells; type: functional, cell-based; settings: Homo sapiens, HepG2, 72 h
[23] = test system: KYSE-30; assay: cells; type: functional, cell-based; settings: Homo sapiens, KYSE-30, 72 h
[24] = test system: A549; assay: cells; type: functional, cell-based; settings: Homo sapiens, A549, 72 h
[25] = Cytotoxicity against human CCC-HEL-1 cells assessed as inhibition of cell growth incubated for 72 hrs by MTT assay; type: toxicity, cell-based
[26] = test system: HGC-27; assay: cells; type: functional, cell-based; settings: Homo sapiens, HGC-27, 72 h
[27] = test system: Raji; assay: cells; type: functional, cell-based; settings: Homo sapiens, 72 h
[28] = target: T1, Protein deacetylase HDAC6; assay: Inhibition of HDAC6 (unknown origin) incubated for 30 mins by fluorescence based microplate reader analysis
[29] = test system: A549; assay: Antitumor activity against human A549 cells xenografted in zebrafish model assessed as inhibition of cell proliferation incubated for 5 days by fluorescence microscopic analysis; type: functional, cell-based; settings: A549, 120 h
[30] = test system: MDA-MB-231; assay: Antiproliferative activity against human MDA-MB-231 cells assessed as inhibition of cell growth incubated for 72 hrs by MTT assay; type: functional, cell-based; settings: MDA-MB-231, 72 h
[31] = test system: KG-1; assay: Antiproliferative activity against human KG-1 cells assessed as inhibition of cell growth incubated for 72 hrs by MTT assay; type: functional, cell-based; settings: KG-1, 72 h
[32] = test system: MOLT-4; assay: Antiproliferative activity against human MOLT-4 cells assessed as inhibition of cell growth incubated for 72 hrs by MTT assay; type: functional, cell-based; settings: MOLT-4, 72 h
[33] = test system: HEL; assay: Antiproliferative activity against human HEL cells assessed as inhibition of cell growth incubated for 72 hrs by MTT assay; type: functional, cell-based
[34] = test system: MCF7; assay: Antiproliferative activity against human MCF7 cells assessed as inhibition of cell growth incubated for 72 hrs by MTT assay; type: functional, cell-based; settings: MCF7, 72 h
[35] = test system: PC-3; assay: Antiproliferative activity against human PC-3 cells assessed as inhibition of cell growth incubated for 72 hrs by MTT assay; type: functional, cell-based; settings: PC-3, 72 h
[36] = test system: SK-N-BE(2); assay: Antiproliferative activity against human SK-N-BE(2) cells assessed as inhibition of cell growth incubated for 72 hrs by MTT assay; type: functional, cell-based; settings: SKNBE2, 72 h
[37] = test system: MCF7; assay: Antiproliferative activity against human MCF7 cells measured after 72 hrs by MTT assay; type: functional, cell-based; settings: MCF7, 72 h
[38] = target: Histone deacetylase 1 (Homo sapiens, UniProt Q13547); assay: Inhibition of HDAC1 (unknown origin) using Ac-peptide as substrate pretreated for 15 mins followed by substrate addition and measured after 60 mins
Histone deacetylase 1, sequence (Q13547 whole entry): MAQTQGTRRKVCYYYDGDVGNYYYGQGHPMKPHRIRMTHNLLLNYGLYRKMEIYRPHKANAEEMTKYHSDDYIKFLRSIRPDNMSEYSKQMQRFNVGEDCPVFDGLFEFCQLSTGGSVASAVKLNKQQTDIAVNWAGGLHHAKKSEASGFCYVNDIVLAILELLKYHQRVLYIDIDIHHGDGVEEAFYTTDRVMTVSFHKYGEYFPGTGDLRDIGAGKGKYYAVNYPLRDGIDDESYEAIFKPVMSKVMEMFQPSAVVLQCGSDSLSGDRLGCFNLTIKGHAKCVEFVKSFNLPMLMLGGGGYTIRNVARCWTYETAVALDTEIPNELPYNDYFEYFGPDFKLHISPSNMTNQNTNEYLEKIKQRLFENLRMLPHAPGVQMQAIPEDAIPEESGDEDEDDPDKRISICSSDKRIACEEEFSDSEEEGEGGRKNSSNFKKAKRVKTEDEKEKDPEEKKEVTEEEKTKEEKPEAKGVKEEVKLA

[39] = test system: HCT-116; assay: Antiproliferative activity against human HCT-116 cells measured after 72 hrs by MTT assay; type: functional, cell-based; settings: HCT-116, 72 h
[40] = test system: A549; assay: Antiproliferative activity against human A549 cells measured after 72 hrs by MTT assay; type: functional, cell-based; settings: A549, 72 h

Structure (SMILES): O=C(CCCCCCNc1nccc(-c2sc(-c3ccccc3)nc2-c2cccc(NS(=O)(=O)c3c(F)cccc3F)c2F)n1)NO
IC50 [5]: 310 nM
IC50 [6]: 1.71 nM
IC50 [7]: 1.71 nM
IC50 [4]: 15.6 nM

Structure (SMILES): O=C(CCCCCCC(=O)Nc1nc2c(s1)C[C@@H](NC(=O)c1cccc3ccccc13)CC2)NO
IC50 at 72 h [17]: 43800 nM
IC50 [18]: 1.4 nM
IC50 [19]: 1220 nM
IC50 [20]: 1.4 nM
IC50 [21]: 1220 nM
IC50 [22]: 1220 nM
IC50 [23]: 1220 nM
IC50 [24]: 1220 nM
IC50 at 72 h [25]: 24400 nM
IC50 [26]: 1220 nM
IC50 [27]: 1220 nM
IC50 [28]: 1.4 nM
IC50 [29]: 1500 nM

Structure (SMILES): Nc1nc2ccc(OC(F)(F)F)cc2s1 [RILUZOLE]
IC50 [30]: > 10000 nM
IC50 [31]: > 10000 nM
IC50 [32]: > 10000 nM
IC50 [33]: > 10000 nM
IC50 [34]: > 10000 nM
IC50 [35]: > 10000 nM
IC50 [36]: > 10000 nM

Structure (SMILES): COc1cc2c(Oc3ccc(NC(=O)C4CCN(c5ccc(F)cc5)C4=O)cc3)ccnc2cc1OCCCCCCC(=O)NO (stereo unspecified)
IC50 [37]: 280 nM
IC50 [38]: 27 nM
IC50 [39]: 280 nM
IC50 [40]: 280 nM

Now from value to compound, other results behind:

IC50 [1]: 196 nM
IC50 [2]: 196 nM
IC50 [3]: 196 nM
IC50 [4]: 231 nM
Structure (SMILES): O=C(/C=C/c1ccc2nn(Cc3ccc(Cl)cc3)cc2c1)NO

IC50 [8]: 2530 nM
IC50 [9]: 2530 nM
IC50 [12]: 2530 nM
Structure (SMILES): O=C(/C=C/c1cccc(S(=O)(=O)Nc2ccccc2)c1)NO [BELINOSTAT]
GI50 [10]: 3300 nM
GI50 [11]: 3300 nM
GI50 [13]: 3300 nM

IC50 [14]: 1290 nM
IC50 [15]: 8.16 nM
IC50 [16]: 1290 nM
Structure (SMILES): O=C(NO)c1ccc(CNc2cccc3cc(-c4ccncc4)cnc23)cc1
